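The compound was tested at five concentrations on cells cultured in 96-well plates, with a 48-hour exposure period. At the GI50, growth is halved. TGI marks complete inhibition of growth.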
Tests used:
Assay in all cases: inhibition of tumour cell growth, NCI panel, 48 h
M14 melanoma = test system: M14 melanoma
HCC-2998 colon = test system: HCC-2998 colon
HOP-62 NSCLC = test system: HOP-62 NSCLC
SK-OV-3 ovarian = test system: SK-OV-3 ovarian
T-47D breast = test system: T-47D breast
SR leukemia = test system: SR leukemia
SF-539 CNS = test system: SF-539 CNS
NCI-H460 lung = test system: NCI-H460 lung
ACHN renal = test system: ACHN renal
SNB-19 CNS = test system: SNB-19 CNS

Row | SMILES | GI50 (M14 melanoma) [µM] | TGI (M14 melanoma) [µM] | GI50 (HCC-2998 colon) [µM] | TGI (HCC-2998 colon) [µM] | GI50 (HOP-62 NSCLC) [µM] | TGI (HOP-62 NSCLC) [µM] | GI50 (SK-OV-3 ovarian) [µM] | TGI (SK-OV-3 ovarian) [µM] | GI50 (T-47D breast) [µM] | TGI (T-47D breast) [µM] | GI50 (SR leukemia) [µM] | TGI (SR leukemia) [µM] | GI50 (SF-539 CNS) [µM] | TGI (SF-539 CNS) [µM] | GI50 (NCI-H460 lung) [µM] | TGI (NCI-H460 lung) [µM] | GI50 (ACHN renal) [µM] | TGI (ACHN renal) [µM] | GI50 (SNB-19 CNS) [µM] | TGI (SNB-19 CNS) [µM]
1 | N#Cc1c(NCc2ccccc2)nc(NCc2ccccc2)c(C#N)c1-c1cccc(O)c1 | 6.65 | > 100 | 95.5 | > 100 | 10.5 | 23.1 | 7.79 | 46.5 | 4.03 | > 100 | 2.09 | 7.48 | 5.18 | 22.1 | 14.9 | 31.4 | 2.63 | 11.7 | 17.1 | > 100
2 | Cn1c(O)c(N=NC(N)=S)c2ccccc21 | 95.9 | > 100 | > 100 | > 100 | 33.5 | > 100 | 66.8 | > 100 | 43.9 | > 100 | 90.1 | > 100 | > 100 | > 100 | 33.9 | > 100 | 51.2 | > 100 | > 100 | > 100
3 | O=C(Nc1ccc(-c2ccnc(Nc3ccc(N4CCOCC4)cc3)n2)cc1)C1CCCN1 (centres undefined) | 7.23 | 22.8 | 11.3 | 25 | 5.16 | 27.7 | 11.8 | 32.8 | 14.7 | 38.7 | – | > 25.6 | 2.33 | 14.2 | 1.6 | 16.4 | 4.27 | 25.2 | 18 | 64.7

Reference: PubChem BioAssay (NCI)
